Measured values taken from paper PMC6458995, “MAP4K4 Inhibition Promotes Survival of Human Stem Cell-Derived Cardiomyocytes and Reduces Infarct Size In Vivo” (Cell Stem Cell, 2019).

Experiments:
Assay in all cases: Dundee kinase panel
PINK = assay type: biochemical, human; conditions: 1 μM
Protocol: (§1) Kinase selectivity profiling was performed by the International Centre for Kinase Profiling, MRC Protein Phosphorylation and Ubiquitylation Unit (141 kinases; Premier Screen, http://www.kinase-screen.mrc.ac.uk), using a [γ-^33P]ATP filter binding assay ([Bain et al., 2007]). Compounds were screened at 1 μM. For key hits, pIC50 values were then determined by HTRF as above. More complete kinome profiling was performed by Reaction Biology (376 kinases). Stability in mouse and human liver microsomes was determined by Cyprotex.

MARK1 = molecular target: T1, MARK1 (Homo sapiens, UniProt Q9P0L2); assay type: biochemical; conditions: for remaining activity at 1 µM: read-out: residual activity
T1 construct: lines 1-140) and Reaction Biology
T1 sequence (Q9P0L2 whole entry): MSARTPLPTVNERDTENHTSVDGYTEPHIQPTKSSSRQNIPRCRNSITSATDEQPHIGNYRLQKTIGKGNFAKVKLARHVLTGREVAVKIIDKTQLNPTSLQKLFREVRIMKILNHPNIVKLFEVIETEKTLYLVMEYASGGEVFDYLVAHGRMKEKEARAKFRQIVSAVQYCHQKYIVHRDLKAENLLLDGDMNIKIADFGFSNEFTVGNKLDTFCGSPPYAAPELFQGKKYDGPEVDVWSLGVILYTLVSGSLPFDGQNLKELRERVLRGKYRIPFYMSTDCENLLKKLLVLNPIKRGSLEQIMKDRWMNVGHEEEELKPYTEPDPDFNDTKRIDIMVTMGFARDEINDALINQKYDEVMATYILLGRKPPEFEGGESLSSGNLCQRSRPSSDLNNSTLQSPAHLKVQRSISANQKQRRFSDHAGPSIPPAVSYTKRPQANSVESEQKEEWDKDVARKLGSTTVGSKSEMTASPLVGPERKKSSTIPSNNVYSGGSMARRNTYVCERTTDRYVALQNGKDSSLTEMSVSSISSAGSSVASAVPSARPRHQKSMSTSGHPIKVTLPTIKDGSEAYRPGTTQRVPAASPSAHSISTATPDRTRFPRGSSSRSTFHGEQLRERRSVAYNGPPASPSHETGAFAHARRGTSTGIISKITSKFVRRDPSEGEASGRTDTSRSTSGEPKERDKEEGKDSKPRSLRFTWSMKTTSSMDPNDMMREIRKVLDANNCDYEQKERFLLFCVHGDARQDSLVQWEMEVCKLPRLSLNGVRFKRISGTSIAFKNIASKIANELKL
Protocol: as §1

ULK2 = molecular target: T2, ULK2 (Homo sapiens, UniProt Q8IYT8); assay type: biochemical; conditions: for remaining activity at 1 µM: read-out: residual activity
T2 construct: lines 1-140) and Reaction Biology
T2 sequence (Q8IYT8 1-1036): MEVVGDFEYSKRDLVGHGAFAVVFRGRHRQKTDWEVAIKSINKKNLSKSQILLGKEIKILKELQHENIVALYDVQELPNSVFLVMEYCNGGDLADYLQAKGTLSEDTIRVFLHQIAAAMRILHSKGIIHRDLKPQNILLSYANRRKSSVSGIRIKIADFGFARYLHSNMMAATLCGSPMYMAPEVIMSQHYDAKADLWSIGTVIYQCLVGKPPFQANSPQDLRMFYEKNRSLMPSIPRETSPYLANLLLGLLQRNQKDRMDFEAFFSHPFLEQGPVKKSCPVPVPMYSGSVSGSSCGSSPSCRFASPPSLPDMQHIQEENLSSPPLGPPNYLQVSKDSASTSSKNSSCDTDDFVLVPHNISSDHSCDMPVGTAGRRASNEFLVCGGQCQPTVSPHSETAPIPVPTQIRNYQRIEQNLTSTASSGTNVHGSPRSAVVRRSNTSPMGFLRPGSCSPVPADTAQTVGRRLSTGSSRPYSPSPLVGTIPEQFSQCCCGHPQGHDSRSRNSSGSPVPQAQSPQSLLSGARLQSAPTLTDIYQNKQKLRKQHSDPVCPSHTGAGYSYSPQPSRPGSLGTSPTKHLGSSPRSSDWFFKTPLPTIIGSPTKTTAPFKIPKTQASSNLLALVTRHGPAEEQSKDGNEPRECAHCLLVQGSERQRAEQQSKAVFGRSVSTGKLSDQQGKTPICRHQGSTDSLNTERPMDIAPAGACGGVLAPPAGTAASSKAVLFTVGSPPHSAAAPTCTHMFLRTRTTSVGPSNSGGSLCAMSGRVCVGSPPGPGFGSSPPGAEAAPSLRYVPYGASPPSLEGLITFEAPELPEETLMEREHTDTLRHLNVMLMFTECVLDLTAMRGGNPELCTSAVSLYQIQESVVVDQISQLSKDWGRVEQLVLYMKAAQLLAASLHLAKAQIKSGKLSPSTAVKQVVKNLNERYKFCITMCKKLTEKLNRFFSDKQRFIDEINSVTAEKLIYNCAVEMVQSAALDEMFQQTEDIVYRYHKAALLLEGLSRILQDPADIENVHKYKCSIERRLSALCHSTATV
Protocol: as §1

Src = molecular target: T3, Src (Homo sapiens, UniProt P12931); assay type: biochemical; conditions: for remaining activity at 1 µM: read-out: residual activity
T3 construct: lines 1-140) and Reaction Biology
T3 sequence (P12931 whole entry): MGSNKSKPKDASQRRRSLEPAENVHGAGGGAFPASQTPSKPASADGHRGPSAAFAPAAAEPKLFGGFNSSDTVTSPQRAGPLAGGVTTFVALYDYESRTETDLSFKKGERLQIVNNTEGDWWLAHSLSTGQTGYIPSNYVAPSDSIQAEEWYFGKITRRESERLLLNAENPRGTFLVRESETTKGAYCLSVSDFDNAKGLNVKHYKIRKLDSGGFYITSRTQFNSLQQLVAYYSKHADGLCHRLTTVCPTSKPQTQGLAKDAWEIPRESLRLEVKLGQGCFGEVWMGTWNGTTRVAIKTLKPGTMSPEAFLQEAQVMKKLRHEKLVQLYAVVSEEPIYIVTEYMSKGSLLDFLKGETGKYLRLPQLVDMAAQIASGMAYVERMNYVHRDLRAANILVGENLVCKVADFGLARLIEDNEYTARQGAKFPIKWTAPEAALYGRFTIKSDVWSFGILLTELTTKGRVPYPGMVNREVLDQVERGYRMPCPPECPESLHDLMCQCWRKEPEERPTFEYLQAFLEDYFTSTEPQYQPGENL
Protocol: as §1

ERK5 = molecular target: T4, ERK5 (Homo sapiens, UniProt Q13164); assay type: biochemical; conditions: for remaining activity at 1 µM: read-out: residual activity
T4 construct: lines 1-140) and Reaction Biology
T4 sequence (Q13164 whole entry): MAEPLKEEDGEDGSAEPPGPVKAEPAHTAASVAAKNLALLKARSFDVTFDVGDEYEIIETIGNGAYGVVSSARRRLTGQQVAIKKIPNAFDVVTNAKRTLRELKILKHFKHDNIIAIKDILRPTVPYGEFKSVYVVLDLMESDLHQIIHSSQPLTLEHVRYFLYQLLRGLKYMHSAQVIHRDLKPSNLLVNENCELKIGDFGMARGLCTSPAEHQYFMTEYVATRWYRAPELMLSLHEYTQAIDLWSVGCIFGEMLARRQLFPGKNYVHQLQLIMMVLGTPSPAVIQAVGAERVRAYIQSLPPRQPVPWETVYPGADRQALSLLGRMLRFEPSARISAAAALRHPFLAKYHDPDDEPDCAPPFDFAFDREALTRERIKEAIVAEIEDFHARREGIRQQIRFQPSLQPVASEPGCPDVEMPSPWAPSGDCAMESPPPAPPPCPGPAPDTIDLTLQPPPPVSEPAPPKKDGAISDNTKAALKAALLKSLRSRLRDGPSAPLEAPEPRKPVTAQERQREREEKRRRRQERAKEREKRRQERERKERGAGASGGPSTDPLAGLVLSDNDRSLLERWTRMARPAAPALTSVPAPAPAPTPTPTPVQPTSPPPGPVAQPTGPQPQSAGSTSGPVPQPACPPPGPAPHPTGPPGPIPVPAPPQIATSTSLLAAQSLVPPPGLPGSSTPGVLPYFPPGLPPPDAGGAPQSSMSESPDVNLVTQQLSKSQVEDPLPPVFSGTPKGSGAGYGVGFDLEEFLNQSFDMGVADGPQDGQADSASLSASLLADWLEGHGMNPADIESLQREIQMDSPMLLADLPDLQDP
Protocol: as §1

MINK1 = molecular target: T5, MINK1 (Homo sapiens, UniProt Q8N4C8); assay type: biochemical; conditions: for remaining activity at 1 µM: read-out: residual activity
T5 construct: lines 1-140) and Reaction Biology
T5 sequence (Q8N4C8 whole entry): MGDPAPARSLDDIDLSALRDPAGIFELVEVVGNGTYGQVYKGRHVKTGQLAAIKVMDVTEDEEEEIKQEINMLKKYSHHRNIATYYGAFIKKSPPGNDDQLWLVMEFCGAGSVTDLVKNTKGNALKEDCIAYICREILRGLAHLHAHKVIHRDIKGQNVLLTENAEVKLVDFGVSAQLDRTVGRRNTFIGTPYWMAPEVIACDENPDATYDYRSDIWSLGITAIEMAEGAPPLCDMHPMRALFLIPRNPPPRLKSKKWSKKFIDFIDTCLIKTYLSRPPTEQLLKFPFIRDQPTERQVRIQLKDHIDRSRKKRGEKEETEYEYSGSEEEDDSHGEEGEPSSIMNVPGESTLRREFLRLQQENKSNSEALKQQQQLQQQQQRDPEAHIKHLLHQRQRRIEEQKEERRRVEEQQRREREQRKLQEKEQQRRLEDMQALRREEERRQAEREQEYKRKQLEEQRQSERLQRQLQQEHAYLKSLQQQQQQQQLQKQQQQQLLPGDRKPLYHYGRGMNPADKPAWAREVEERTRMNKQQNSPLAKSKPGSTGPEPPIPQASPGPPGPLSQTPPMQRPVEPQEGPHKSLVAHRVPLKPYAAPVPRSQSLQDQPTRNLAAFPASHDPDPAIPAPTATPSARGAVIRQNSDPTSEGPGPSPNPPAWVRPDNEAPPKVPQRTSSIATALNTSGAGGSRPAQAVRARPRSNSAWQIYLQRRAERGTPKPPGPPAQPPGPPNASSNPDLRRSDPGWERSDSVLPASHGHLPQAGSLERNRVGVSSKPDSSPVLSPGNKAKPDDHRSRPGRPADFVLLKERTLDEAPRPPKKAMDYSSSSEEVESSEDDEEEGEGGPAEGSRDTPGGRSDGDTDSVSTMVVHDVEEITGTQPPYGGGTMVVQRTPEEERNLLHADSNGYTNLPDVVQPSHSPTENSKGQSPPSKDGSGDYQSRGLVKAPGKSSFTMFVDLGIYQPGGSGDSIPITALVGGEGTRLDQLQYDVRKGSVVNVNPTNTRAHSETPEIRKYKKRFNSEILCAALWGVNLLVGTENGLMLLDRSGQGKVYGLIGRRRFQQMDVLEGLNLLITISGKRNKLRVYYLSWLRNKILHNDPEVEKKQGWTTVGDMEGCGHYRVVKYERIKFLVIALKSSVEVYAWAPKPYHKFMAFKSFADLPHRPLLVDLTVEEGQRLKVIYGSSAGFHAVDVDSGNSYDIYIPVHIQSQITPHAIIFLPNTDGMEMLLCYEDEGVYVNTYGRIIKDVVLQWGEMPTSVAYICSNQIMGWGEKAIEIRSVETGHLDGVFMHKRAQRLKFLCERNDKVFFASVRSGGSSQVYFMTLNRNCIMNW
Protocol: as §1

MAP4K5 = molecular target: T6, MAP4K5 (Homo sapiens, UniProt Q9Y4K4); assay type: biochemical; conditions: for remaining activity at 1 µM: read-out: residual activity
T6 construct: lines 1-140) and Reaction Biology
T6 sequence (Q9Y4K4 whole entry): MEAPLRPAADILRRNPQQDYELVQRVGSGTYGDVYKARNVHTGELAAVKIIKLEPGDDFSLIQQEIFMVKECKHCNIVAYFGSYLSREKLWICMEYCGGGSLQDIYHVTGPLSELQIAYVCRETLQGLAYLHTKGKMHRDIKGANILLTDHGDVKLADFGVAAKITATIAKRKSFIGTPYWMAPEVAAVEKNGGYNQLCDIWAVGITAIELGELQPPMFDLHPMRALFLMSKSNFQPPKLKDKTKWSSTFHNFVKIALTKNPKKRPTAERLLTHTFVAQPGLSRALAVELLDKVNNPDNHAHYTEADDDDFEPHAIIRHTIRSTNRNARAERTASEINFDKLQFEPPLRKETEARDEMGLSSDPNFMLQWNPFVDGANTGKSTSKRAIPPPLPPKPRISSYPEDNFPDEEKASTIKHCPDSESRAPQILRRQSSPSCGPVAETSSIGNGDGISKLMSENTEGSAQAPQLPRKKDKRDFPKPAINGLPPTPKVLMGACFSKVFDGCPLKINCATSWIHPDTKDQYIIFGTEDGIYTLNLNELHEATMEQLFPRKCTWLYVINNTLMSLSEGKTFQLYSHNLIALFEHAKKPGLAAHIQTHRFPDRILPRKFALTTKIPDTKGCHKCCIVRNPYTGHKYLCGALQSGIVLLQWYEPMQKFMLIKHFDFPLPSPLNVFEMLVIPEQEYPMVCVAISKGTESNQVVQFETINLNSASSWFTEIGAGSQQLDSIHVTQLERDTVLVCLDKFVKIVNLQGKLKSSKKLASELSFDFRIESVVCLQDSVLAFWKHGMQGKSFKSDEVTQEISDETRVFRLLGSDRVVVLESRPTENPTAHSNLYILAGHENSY
Protocol: as §1

TGFBR1 = molecular target: T7, TGFBR1 (Homo sapiens, UniProt P36897); assay type: biochemical; conditions: for remaining activity at 1 µM: read-out: residual activity
T7 construct: lines 1-140) and Reaction Biology
T7 sequence (P36897 34-503): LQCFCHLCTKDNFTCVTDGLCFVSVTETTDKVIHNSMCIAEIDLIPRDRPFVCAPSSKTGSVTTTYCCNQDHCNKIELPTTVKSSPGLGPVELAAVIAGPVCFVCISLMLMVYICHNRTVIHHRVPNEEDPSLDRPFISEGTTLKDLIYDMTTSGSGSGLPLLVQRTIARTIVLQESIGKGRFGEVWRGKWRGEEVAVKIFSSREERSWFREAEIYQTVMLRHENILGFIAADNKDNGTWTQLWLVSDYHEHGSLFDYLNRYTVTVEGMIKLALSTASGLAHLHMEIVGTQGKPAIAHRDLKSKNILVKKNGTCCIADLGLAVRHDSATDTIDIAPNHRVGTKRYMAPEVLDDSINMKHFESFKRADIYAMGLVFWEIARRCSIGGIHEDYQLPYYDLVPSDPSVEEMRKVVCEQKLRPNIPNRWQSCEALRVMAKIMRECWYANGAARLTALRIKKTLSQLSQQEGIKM
Protocol: as §1

Compound: COCCOc1ccc(-c2cn(-c3ccccc3)c3nc[nH]c(=O)c23)cc1 [DMX-5804, 5-[4-(2-methoxy-ethoxy)-phenyl]-7-phenyl-3,7-dihydro-pyrrolo[2,3-d]pyrimidin-4-one]
- residual activity (PINK): 108%
- remaining activity at 1 µM (MARK1): 81%
- remaining activity at 1 µM (ULK2): 89%
- remaining activity at 1 µM (Src): 92%
- remaining activity at 1 µM (ERK5): 115%
- remaining activity at 1 µM (MINK1): 2%
- remaining activity at 1 µM (MAP4K5): 44%
- remaining activity at 1 µM (TGFBR1): 95%

Compound: Oc1ncnc2c1c(-c1ccccc1)cn2-c1ccccc1 [F1386-0303, 5,7-diphenyl-7H-pyrrolo[2,3-d]pyrimidin-4-ol]
- residual activity (PINK): 104%
- remaining activity at 1 µM (MARK1): 87%
- remaining activity at 1 µM (ULK2): 86%
- remaining activity at 1 µM (Src): 118%
- remaining activity at 1 µM (ERK5): 93%
- remaining activity at 1 µM (MINK1): 11%
- remaining activity at 1 µM (MAP4K5): 82%
- remaining activity at 1 µM (TGFBR1): 141%

Compound: Nc1ncc(C(=O)NC2CN(C(=O)C3CC3)C2)c2ccc(-c3cccc(F)c3)nc12 [GNE-495]
- residual activity (PINK): 104%
- residual activity (MARK1; 1 μM): 57%
- residual activity (ULK2; 1 μM): 100%
- residual activity (Src; 1 μM): 122%
- residual activity (ERK5; 1 μM): 96%
- residual activity (MINK1; 1 μM): 2%
- residual activity (MAP4K5; 1 μM): 45%
- residual activity (TGFBR1; 1 μM): 94%
